These results are taken from patent US7935703B2, “Piperazines and piperidines as Mglur5 potentiators” (AstraZeneca AB, priority 2006, dated 2011).

T1 sequence (P41594 21-942 isoform P41594-3 limits assumed): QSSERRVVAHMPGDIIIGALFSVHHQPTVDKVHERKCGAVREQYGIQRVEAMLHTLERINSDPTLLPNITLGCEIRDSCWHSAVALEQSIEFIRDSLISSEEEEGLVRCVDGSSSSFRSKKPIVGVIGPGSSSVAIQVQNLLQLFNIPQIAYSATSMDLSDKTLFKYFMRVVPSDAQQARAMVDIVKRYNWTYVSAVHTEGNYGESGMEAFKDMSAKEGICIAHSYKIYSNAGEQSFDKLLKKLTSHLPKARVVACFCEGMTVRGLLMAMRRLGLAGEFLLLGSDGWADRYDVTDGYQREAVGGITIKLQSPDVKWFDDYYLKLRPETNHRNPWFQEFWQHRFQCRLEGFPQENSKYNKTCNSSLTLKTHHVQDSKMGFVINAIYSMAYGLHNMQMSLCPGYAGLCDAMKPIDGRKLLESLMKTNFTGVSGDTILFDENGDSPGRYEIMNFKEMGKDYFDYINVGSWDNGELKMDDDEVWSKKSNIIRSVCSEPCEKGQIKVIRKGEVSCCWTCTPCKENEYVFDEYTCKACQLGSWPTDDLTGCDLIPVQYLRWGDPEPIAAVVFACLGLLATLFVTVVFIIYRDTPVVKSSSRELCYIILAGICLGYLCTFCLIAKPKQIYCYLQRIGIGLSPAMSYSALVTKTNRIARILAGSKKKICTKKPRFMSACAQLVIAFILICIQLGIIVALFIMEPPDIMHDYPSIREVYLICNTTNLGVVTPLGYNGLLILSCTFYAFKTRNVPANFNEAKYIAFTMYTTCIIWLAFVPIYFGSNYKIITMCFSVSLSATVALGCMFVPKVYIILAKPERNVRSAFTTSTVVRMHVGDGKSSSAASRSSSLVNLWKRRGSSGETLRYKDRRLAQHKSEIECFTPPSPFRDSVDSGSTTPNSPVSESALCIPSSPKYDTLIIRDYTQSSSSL

The assay has as its target T1, human mGluR5d (Homo sapiens, UniProt P41594).
T1 construct: expressed in transfected cells; host or cells: GHEK cells (human embryonic kidney cells expressing glutamate transporter), stated for the IP3 assay
Briefly: functional assays for mGluR5 potentiation: [Ca2+]i mobilization (FLIPR), secondary IP3 turnover assay. In kind it is cell-based. The settings on record: active in assays described herein; which assay (FLIPR or IP3) is not stated. An excerpt: The pharmacological properties of the compounds of the invention can be analyzed using standard assays for functional activity. Examples of glutamate receptor assays are well known in the art as described in for example Aramori et al., Neuron 8:757 (1992), Tanabe et al., Neuron 8:169 (1992), Miller et al., J Neuroscience 15: 6103 (1995), Balazs, et al., J. Neurochemistry 69:151 (1997). The methodology described in these publications is incorporated herein by reference. Conveniently, the compounds of the invention can be studied by means of an assay that measures the mobilization of intracellular calcium, [Ca^2+]i in cells expressing mGluR5.
Intracellular calcium mobilization was measured by detecting changes in fluorescence of cells loaded with the fluorescent indicator fluo-3. Fluorescent signals were measured using the FLIPR system (Molecular Devices). A two addition experiment was used that could detect compounds that either activate or antagonize the receptor.
For FLIPR analysis, cells expressing human mGluR5d were seeded on collagen coated clear bottom 96-well plates with black sides and analysis of [Ca^2+]i mobilization was done 24 hours after seeding.
FLIPR experiments were performed using a laser setting of 0.800 W and a 0.4 second CCD camera shutter speed. Each FLIPR experiment was initiated with 160 μL of buffer present in each well of the cell plate. After each addition of the compound, the fluorescence signal was sampled 50 times at 1 second intervals followed by 3 samples at 5 second intervals. Responses were measured as the peak height of the response within the sample period.
EC50 and IC50 determinations were made from data obtained from 8-point concentration response curves (CRC) performed in duplicate. Agonist CRC were generated by scaling all responses to the maximal response observed for the plate. Antagonist block of the agonist challenge was normalized to the average response of the agonist challenge in 14 control wells on the same plate.
We have validated a secondary functional assay for mGluR5d based on Inositol Phosphate (IP3) turnover. IP3 accumulation is measured as an index of receptor mediated phospholipase C turnover. GHEK cells stably expressing the human mGluR5d receptors were incubated with [3H] myo-inositol overnight, washed three times in HEPES buffered saline and pre-incubated for 10 minutes with 10 mM LiCl. Compounds (agonists) were added and incubated for 30 minutes at 37° C. Antagonist and potentiator activity was determined by pre-incubating test compounds for 15 minutes, then incubating in the presence of glutamate or DHPG (EC80 for antagonists, EC30 for potentiators) for 30 minutes. Reactions were terminated by the addition of perchloric acid (5%). […]
Turning to `O=C(COCc1ccccc1)N1CCN(c2ccccc2)CC1` [Compound 12, 2-Benzyloxy-1-(4-phenyl-piperazin-1-yl)-ethanone], the EC50 – broadly, the concentration giving half of the maximal effect – was 0.6 µM. The figure for `N#Cc1cccnc1N1CCN(C(=O)COCc2ccccc2)CC1` [Compound 23, 2-[4-(2-Benzyloxy-acetyl)-piperazin-1-yl]-nicotinonitrile] is 5.1 µM; for `O=C(COCc1ccc(F)cc1)N1CCN(c2ccc(F)cc2F)CC1` [Compound 48, 1-[4-(2,4-Difluoro-phenyl)-piperazin-1-yl]-2-(4-fluoro-benzyloxy)-ethanone] it is 0.4 µM; for `C[C@@H]1CN(c2ccc(Cl)cc2Cl)CCN1C(=O)COCc1ccncc1` [Compound 58, 1-[(R)-4-(2,4-Dichloro-phenyl)-2-methyl-piperazin-1-yl]-2-(pyridin-4-ylmethoxy)-ethanone] it is 2.3 µM.
